The target in the test is T1, human PAD4 (Homo sapiens, UniProt Q9UM07).
T1 construct: human PAD4 (NM_012387), A2-P663, was PCR amplified; His-SUMO (N, cleaved yes); made in house; host or cells: E. coli BL21(DE3)
Kind of test: In vitro PAD4 BAEE biochemical assay. Particulars: BAEE substrate 3 mM, 5 nM PAD4, 2 mM calcium chloride; geometric mean of multiple experiments. The procedure, abridged:
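Recombinant human PAD4 (5 nM final) with 2 mM CaCl2 was preincubated with compound 30 min at 25 °C in MOPS buffer pH 7.6, then reacted with 3 mM BAEE for 2 h at 25 °C. After EDTA stop, released ammonia was detected by o-phthalaldehyde/DTT fluorescence (ex 405/em 535 nm); IC50 from four-parameter fit, geometric mean.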

The structures appear in SMILES notation.

T1 sequence (Q9UM07 2-663): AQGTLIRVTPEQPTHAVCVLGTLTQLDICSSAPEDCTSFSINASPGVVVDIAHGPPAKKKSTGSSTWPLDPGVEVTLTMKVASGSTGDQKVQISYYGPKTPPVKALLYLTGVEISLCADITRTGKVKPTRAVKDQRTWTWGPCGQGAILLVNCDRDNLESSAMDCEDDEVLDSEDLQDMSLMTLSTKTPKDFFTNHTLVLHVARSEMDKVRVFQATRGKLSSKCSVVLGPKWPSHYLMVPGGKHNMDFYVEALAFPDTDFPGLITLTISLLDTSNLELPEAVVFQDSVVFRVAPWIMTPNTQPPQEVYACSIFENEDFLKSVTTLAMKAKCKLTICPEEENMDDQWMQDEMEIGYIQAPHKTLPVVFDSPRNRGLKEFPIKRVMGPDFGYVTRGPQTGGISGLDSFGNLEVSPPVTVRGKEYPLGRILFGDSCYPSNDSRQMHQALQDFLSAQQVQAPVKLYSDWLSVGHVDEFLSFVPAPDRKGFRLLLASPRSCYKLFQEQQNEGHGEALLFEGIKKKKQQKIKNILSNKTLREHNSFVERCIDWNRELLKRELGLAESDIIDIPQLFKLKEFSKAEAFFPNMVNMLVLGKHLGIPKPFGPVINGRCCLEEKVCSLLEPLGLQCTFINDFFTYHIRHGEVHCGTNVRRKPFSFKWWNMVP

As for `C[C@H]1NC(=O)c2cnc(C(F)F)cc2CCCCCn2c(-c3nc4cc(C(=O)N5C[C@H](N)[C@@H]6CC[C@H]5C6)cc(F)c4n3C3CC3)cc3ccc1nc32` [Example 674, (2~{R})-17-[5-[(1~{S},4~ {R},5~{R})-4-amino-2-azabicyclo[3.2.1]octane-2-carbonyl]-1-cyclopropyl-7-fluoro-benzimidazol-2-yl]-8-(difluoromethyl)-2-methyl-3,7,16,22-tetrazatetracyclo[14.5.2.0^ {5,10).0^{19,23}]tricosa-1(22),5(10),6,8,17,19(23), 20-heptaen-4-one], the IC50 (in general, the concentration needed to halve the response being measured) was determined as 17 nM.

With `CO[C@@H]1CCN(C(=O)c2ccc3c(c2)nc(-c2cc4ccc5nc4n2CCCCCc2nc(Cl)ccc2C(=O)N[C@@H]5C)n3C2CC2)C[C@@H]1N` [Example 693, (2~{R})-17-[5-[(3~{S},4~ {R})-3-amino-4-methoxy-piperidine-1-carbonyl]-1-cyclopropyl-benzimidazol-2-yl]-8-chloro-2-methyl-3,9,16,22-tetrazatetracyclo [14.5.2.0^{5,10}.0^ {19,23}]tricosa-1(22), 5(10),6,8,17,19(23), 20-heptaen-4-one], the IC50 was found to be 18 nM.

Take `COc1cc(C(=O)N2CC[C@@H](OC(F)F)[C@@H](N)C2)cc2nc(-c3cc4ccc5nc4n3CCCCC[C@@H]3C[C@H]3C(=O)N[C@@H]5C)n(C)c12` [Example 6, (2~{R),5~{R},7~{R})-14-[5-[(3~{S},4~{R})-3-amino-4-(difluoromethoxy)piperidine-1-carbonyl]-7-methoxy-1-methyl-benzimidazol-2-yl]-2-methyl-3,13,19-triazatetracyclo[11.5.2.0^{5,7}.0^{16,20}] icosa-1(19),14,16(20),17-tetraen-4-one]: the IC50 stood at 105 nM.

For the compound `COc1cc(C(=O)N2CCC[C@@H](N)[C@H]2C)cc2nc(-c3cc4ccc5nc4n3CCCCCc3cncc(F)c3C(=O)N[C@@H]5C)n(C)c12` [Example 657, (2~{R})-17-[5-[(2~{R},3~{R})-3-amino-2-methyl-piperidine-1-carbonyl]-7-methoxy-1-methyl-benzimidazol-2-yl]-6-fluoro-2-methyl-3,8,16,22-tetrazatetracyclo [14.5.2.0^{5,10}.0^{19,23}] tricosa-1(22),5,7,9,17,19(23), 20-heptaen-4-one], the IC50 worked out at 14 nM.

For the compound `COc1cc(C(=O)N2C[C@H](N)[C@@H]3CC[C@H]2C3)cc2nc(-c3cc4ccc5nc4n3CCCc3ccc4cccc(c4c3)C(=O)N[C@@H]5C)n(C)c12` [Example 950, (4~{R})-10-[5-[(1~{S},4~{R},5~ {R})-4-amino-2-azabicyclo [3.2.1]octane-2-carbonyl]-7-methoxy-1-methyl-benzimidazol-2-yl]-4-methyl-3,6,11-triazapentacyclo [13.6.2.2^{5,8}.0^{7,11}.0^ {18,22}]pentacosa-1(22),5,7,9, 15(23),16,18,20,24-nonaen-2-one], the concentration for half-maximal inhibition (IC50) is 38 nM.

For `COc1cc(C(=O)N[C@@H]2CCCCNC2)cc2nc(-c3cc4ccc5nc4n3CCCCCCC3(CC3)C(=O)N[C@@H]5C)n(C)c12` [Example 77, ~{N}-[(3~{R})-azepan-3-yl]-7-methoxy-1-methyl-2-[(11~{R})-11-methyl-9-oxo-spiro[1,10,19-triazatricyclo[10.5.2.0^{15,18}]nonadeca-12(19),13,15(18),16-tetraene-8,1′-cyclopropane]-17-yl]benzimidazole-5-carboxamide], the IC50 was 367 nM.

For `COc1cc(C(=O)N2CCC[C@@H](N)C2)cc2nc(-c3cc4ccc5nc4n3C[C@H]3C[C@H]3COCCC(=O)N[C@@H]5C)n(C)c12` [Example 304, (3~{S),5~{R},12~{R})-18-[5-[(3~{R})-3-aminopiperidine-1-carbonyl]-7-methoxy-1-methyl-benzimidazol-2-yl]-12-methyl-7-oxa-1,11,20-triazatetracyclo[11.5.2.0^{3,5}.0^{16,19}] icosa-13(20),14,16(19),17-tetraen-10-one], the IC50 stood at 70 nM.

On to `COc1cc(C(=O)N2C[C@H](N)[C@@H]3CC[C@H]2C3)cc2nc(-c3cc4ccc5nc4n3CCCCCc3ccc(F)cc3C(=O)N[C@@H]5C)n(C)c12` [Example 899, (2~{R})-17-[5-[(1~{S},4~{R}, 5~{R})-4-amino-2-azabicyclo [3.2.1]octane-2-carbonyl]-7-methoxy-1-methyl-benzimidazol-2-yl]-7-fluoro-2-methyl-3,16,22-triazatetracyclo [14.5.2.0^{5,10}.0^{19,23}] tricosa-1(22),5(10),6,8,17, 19(23),20-heptaen-4-one], for which the 50% inhibitory concentration (IC50) amounted to 30 nM.

With `COc1cc(C(=O)N2CCC[C@@H](N)C2)cc2nc(-c3cc4ccc5nc4n3C[C@H]3C[C@H]3COCC(C)(C)C(=O)N[C@@H]5C)n(C)c12` [Example 310, (3~{S},5~{R},12~{R})-18-[5-[(3~{R})-3-aminopiperidine-1-carbonyl]-7-methoxy-1-methyl-benzimidazol-2-yl]-9,9,12-trimethyl-7-oxa-1,11,20-triazatetracyclo[11.5.2.0^{3,5}.0^{16,19}] icosa-13(20),14,16(19),17-tetraen-10-one], the IC50 stood at 135 nM.

With `COc1cc(C(=O)N2CC[C@@H]3CCN[C@@H]3C2)cc2nc(-c3cc4ccc5nc4n3CCCCC[C@@H]3C[C@H]3C(=O)N[C@@H]5C)n(C)c12` [Example 532, (2~{R},5~{R},7~{R})-14-[5-[(3~{a}~{S}, 7~{a}~{S})-1,2,3,3~ {a},4,5,7,7~{a}-octahydropyrrolo[2,3-c]pyridine-6-carbonyl]-7-methoxy-1-methyl-benzimidazol-2-yl]-2-methyl-3,13,19-triazatetracyclo[11.5.2.0^ {5,7}.0^{16,20}]icosa-1 (19),14,16(20),17-tetraen-4-one], the IC50 turned out to be 239 nM.

Regarding `C[C@H]1NC(=O)c2ncccc2CCCCCn2c(-c3nc4cc(C(=O)N[C@H]5CNCC[C@@H]5F)c(F)cc4n3C)cc3ccc1nc32` [Example 498, 6-fluoro-~{N}-[(3~{S}, 4~{S})-4-fluoro-3-piperidyl]-1-methyl-2-[(2~{R})-2-methyl-4-oxo-3,6,16,22-tetrazatetracyclo [14.5.2.0^{5,10}.0^ {19,23}]tricosa-1(22), 5,7,9,17,19(23),20-heptaen-17-yl]benzimidazole-5-carboxamide], the IC50 was 67 nM.

Consider `COc1cc(C(=O)N2[C@H]3CC[C@@H]2[C@H](N)C3)cc2nc(-c3cc4ccc5nc4n3CC3(CCCCCC(=O)N[C@@H]5C)CC3)n(C)c12` [Example 139, (11~{R})-17-[5-[(1~{R},2~{R},4~{S})-2-amino-7-azabicyclo[2.2.1]heptane-7-carbonyl]-7-methoxy-1-methyl-benzimidazol-2-yl]-11-methyl-spiro[1,10,19-triazatricyclo[10.5.2.0^{15,18}]nonadeca-12(19),13,15(18),16-tetraene-3,1′-cyclopropane]-9-one], for which the IC50 was found to be 40 nM.

For `COc1cc(C(=O)N2C[C@H](N)[C@@H]3CC[C@H]2C3)cc2nc(-c3cc4ccc5nc4n3CC(F)(F)CCC[C@@H]3C[C@H]3C(=O)N[C@@H]5C)n(C)c12` [Example 442, (2~{R},5~{R},7~{R})-14-[5-[(1~{S),4~{R},5~{R})-4-amino-2-azabicyclo[3.2.1]octane-2-carbonyl]-7-methoxy-1-methyl-benzimidazol-2-yl]-11,11-difluoro-2-methyl-3,13,19-triazatetracyclo[11.5.2.0^{5,7).0^{16,20}] icosa-1(19),14,16(20),17-tetraen-4-one], the IC50 was determined as 32 nM.

These data come from patent US11976083B2, “Inhibitors of peptidylarginine deiminases” (Gilead Sciences, Inc., priority 2020, dated 2024).
